Patent US8735323B2, “Fungicide N-5-membered fused heteroaryl-methylene-N-cycloalkyl-carboxamide derivatives” (Bayer Cropscience AG, priority 2007, dated 2014)

Assay: logP determination by HPLC on reversed-phase column (C 18), EEC Directive 79/831 Annex V.A8
Format: physicochemical
Conditions: C 18 reversed-phase, 40° C., 0.1% aqueous formic acid and acetonitrile gradient
Procedure: In the following table, the logP values were determined in accordance with EEC Directive 79/831 Annex V.A8 by HPLC (High Performance Liquid Chromatography) on a reversed-phase column (C 18), using the method described below: Temperature: 40° C.; Mobile phases: 0.1% aqueous formic acid and acetonitrile; linear gradient from 10% acetonitrile to 90% acetonitrile. Calibration was carried out using unbranched alkan-2-ones (comprising 3 to 16 carbon atoms) with known logP values (determination of the logP values by the retention times using linear interpolation between two successive alkanones).

LogP: 3.89
SMILES: CCc1nn(C)c(F)c1C(=O)N(Cc1cn(-c2ccccc2)c2ccccc12)C1CC1 [Compound 29]
